Measurements published in ChEMBL document CHEMBL4819155, “Phenolic compounds from the leaves of Crataegus pinnatifida Bge. var. major N.E.Br. And their lipid-lowering effects” (2021).
Active and inactive are the calls of the source. No cut-off for these calls is given here.

Experiments:
HepG2 [1] = assay: Hypolipidemic activity against oleic acid/palmitic acid-induced hyperlipidemia in human HepG2 cells assessed as reduction in triglycerides content; assay type: functional, cell-based
HepG2 [2] = assay: Hypolipidemic activity against oleic acid/palmitic acid-induced hyperlipidemia in human HepG2 cells assessed as reduction in triglycerides content relative to control group; assay type: functional
HepG2 [3] = assay: Hypolipidemic activity against oleic acid-induced lipid accumulation in human HepG2 cell model assessed reduction in total cholesterol level; assay type: functional, cell-based
HepG2 [4] = assay: Hypolipidemic activity against oleic acid/palmitic acid-induced hyperlipidemia in human HepG2 cells assessed as decrease in triglycerides level at 0.001 to 10 uM; assay type: functional, cell-based; conditions: dose 0.001-10 µM
HepG2 [5] = assay: Hypolipidemic activity against oleic acid/palmitic acid-induced hyperlipidemia in human HepG2 cells assessed as triglycerides content measured per gm of protein; assay type: functional
HepG2 [6] = assay: Hypolipidemic activity against oleic acid/palmitic acid-induced hyperlipidemia in human HepG2 cells assessed as decrease in triglycerides level at 0.01 to 1 uM; assay type: functional, cell-based; conditions: dose 0.01-1 µM
HepG2 [7] = assay: Hypolipidemic activity against oleic acid/palmitic acid-induced hyperlipidemia in human HepG2 cells assessed reduction in total cholesterol level at 0.001 to 10 uM; assay type: functional, cell-based; conditions: dose 0.001-10 µM
HepG2 [8] = assay: Hypolipidemic activity against oleic acid/palmitic acid-induced hyperlipidemia in human HepG2 cells assessed reduction in total cholesterol level at 10 uM; assay type: functional, cell-based
HepG2 [9] = assay: Hypolipidemic activity against oleic acid/palmitic acid-induced hyperlipidemia in human HepG2 cells assessed as decrease in triglycerides level at 0.001 to 1 uM; assay type: functional, cell-based; conditions: dose 0.001-1 µM

SMILES | Activity (HepG2 [1]) | Activity (HepG2 [5]) | other results
O=c1c(O)c(-c2ccc(O)c(O)c2)oc2cc(O)cc(O)c12 | Active | – | –
Oc1cc(O)c2c(c1)O[C@H](c1ccc(O)c(O)c1)[C@H](O)C2 | Active | – | –
O=c1c(O[C@@H]2O[C@H](CO)[C@@H](O)[C@H](O)[C@H]2O)c(-c2ccc(O)c(O)c2)oc2cc(O)cc(O)c12 [ISOQUERCETIN] | – | 0.308 mmol | inhibition (INH) (HepG2 [2]): 30.42%; Activity (HepG2 [3]): inactive; Activity (HepG2 [4]): Active
COc1cc(CO[C@@H]2O[C@H](CO)[C@@H](O)[C@H](O)[C@H]2O)cc(OC)c1OC | Active | – | –
Oc1cc(O)c2c(c1)O[C@H](c1ccc(O)c(O)c1)[C@@H](O)C2 | Active | – | –
O=c1cc(-c2ccc(O)cc2)oc2c([C@@H]3O[C@H](CO)[C@@H](O)[C@H](O)[C@H]3O)c(O)cc(O)c12 | – | 0.283 mmol | inhibition (HepG2 [2]; dose or concentration not given here): 34.6%; Activity (HepG2 [6]): Dose-Dependent Effect; Activity (HepG2 [7]): Dose-Dependent Effect
O=C(/C=C/c1ccc(O)c(O)c1)O[C@@H]1C[C@](O)(C(=O)O)C[C@@H](O)[C@H]1O | Active | – | –
O=c1cc(-c2ccc(O)cc2)oc2c([C@@H]3O[C@H](CO)[C@@H](O[C@@H]4O[C@H](CO)[C@@H](O)[C@H](O)[C@H]4O)[C@H](O)[C@H]3O)c(O)cc(O)c12 | – | 0.28 mmol | inhibition (INH) (HepG2 [2]): 35.34%; Activity (HepG2 [4]): Active; Activity (HepG2 [8]): Active
C[C@@H]1O[C@@H](O[C@@H]2[C@@H](O)[C@H](O)[C@@H](CO)O[C@H]2c2c(O)cc(O)c3c(=O)cc(-c4ccc(O)cc4)oc23)[C@H](O)[C@H](O)[C@H]1O | Active | – | –
O=C1C[C@@H](c2ccc(O)c(O)c2)c2c(cc3c(c2O)C[C@@H](O)[C@@H](c2ccc(O)c(O)c2)O3)O1 | Active | – | –
CCC(C)(C)C(=O)O[C@H]1C[C@@H](C)C=C2C=C[C@H](C)[C@H](CC[C@@H]3C[C@@H](O)CC(=O)O3)[C@H]21 | Active | – | Activity (HepG2 [3]): Active
O=C1C[C@@H](c2ccc(O)c(O)c2)c2c(cc(O)c3c2O[C@H](c2cc(O)cc(O)c2)[C@H](O)C3)O1 | – | 0.28 mmol | inhibition (INH) (HepG2 [2]): 34.92%; Activity (HepG2 [7]): Dose-Dependent Effect; Activity (HepG2 [9]): Dose-Dependent Effect
O=c1c(O[C@@H]2O[C@H](CO)[C@H](O)[C@H](O)[C@H]2O)c(-c2ccc(O)c(O)c2)oc2cc(O)cc(O)c12 | Active | – | –
